In patent US20240382482A1, “PLASMA KALLIKREIN INHIBITORS” (TAKEDA PHARMACEUTICAL COMPANY LIMITED, priority 2021, published 2024):
Counter-ions that a name gives are not always drawn.

Target: human activated kallikrein enzyme (Homo sapiens, UniProt P03952)
Assay: Inhibition of human activated kallikrein enzyme, fluorogenic peptide substrate assay (500 pM enzyme format)
Assay type: biochemical
Conditions: 500 pM activated kallikrein, 300 μM PFR-AMC substrate, 30 min preincubation, 10 min reaction, room temperature; read-out: Primary Dose Response Assay: Average EC50
Method in brief: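 500 pM enzyme preincubated 30 min at room temperature with inhibitor in 20 mM Tris pH 7.5, 150 mM NaCl, 1 mM EDTA, 0.1% PEG-400, 0.1% Triton X-100. Reaction started with 300 μM PFR-AMC and run 10 min at room temperature. AMC fluorescence read at ex 380/em 460 nm, and EC50 values reported as ranges.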

human activated kallikrein enzyme, sequence (P03952 391-638 limits assumed): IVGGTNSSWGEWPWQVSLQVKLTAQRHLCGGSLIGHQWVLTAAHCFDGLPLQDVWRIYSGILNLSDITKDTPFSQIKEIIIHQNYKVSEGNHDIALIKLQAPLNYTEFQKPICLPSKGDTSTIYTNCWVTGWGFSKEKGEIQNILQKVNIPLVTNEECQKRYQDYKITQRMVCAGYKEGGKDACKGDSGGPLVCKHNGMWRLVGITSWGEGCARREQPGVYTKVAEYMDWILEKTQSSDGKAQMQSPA
human activated kallikrein enzyme, sequence (P03952 20-390 partner limits assumed): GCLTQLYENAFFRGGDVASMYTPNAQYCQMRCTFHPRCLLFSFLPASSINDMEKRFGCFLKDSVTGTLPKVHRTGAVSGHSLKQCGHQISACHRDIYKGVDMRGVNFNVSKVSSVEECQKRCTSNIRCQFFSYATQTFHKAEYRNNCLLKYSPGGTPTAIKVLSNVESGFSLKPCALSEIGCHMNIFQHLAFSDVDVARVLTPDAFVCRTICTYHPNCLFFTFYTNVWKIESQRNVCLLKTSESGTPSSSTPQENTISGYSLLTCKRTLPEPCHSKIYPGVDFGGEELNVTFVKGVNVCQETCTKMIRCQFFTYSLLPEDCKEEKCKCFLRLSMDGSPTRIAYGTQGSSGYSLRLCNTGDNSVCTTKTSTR

`O[C@H]1C[C@H](c2cn3cc(C4CC4)ccc3n2)N(c2cc(NCc3cc4cc[nH]c4cc3F)ncn2)C1` [Example 140, (3S,5R)-5-(6-cyclopropylimidazo[1,2-a]pyridin-2-yl)-1-(6-(((6-fluoro-1H-indol-5-yl)methyl)amino)pyrimidin-4-yl)pyrrolidin-3-ol] and `O=C(Cn1c(=O)oc2ccc(Cl)cc21)Nc1cc(NCc2cn3cc(C4CC4)ccc3n2)ncn1` [Example 123, 2-(5-chloro-2-oxobenzo[d]oxazol-3 (2H)-yl)-N-(6-(((6-cyclopropylimidazo[1,2-a]pyridin-2-yl)methyl)amino)pyrimidin-4-yl)acetamide] fall in the same range of EC50: 500 to 9000 nM for the first, 500 to 9000 nM for the second.

`O=C(Cc1ncn2ccc(Cl)cc12)Nc1cncnc1NCc1cn2cc(C3CC3)cc(CO)c2n1` [Example 41, 2-(7-chloroimidazo[1,5-a]pyridin-1-yl)-N-(4-(((6-cyclopropyl-8-(hydroxymethyl)imidazo[1,2-a]pyridin-2-yl)methyl)amino)pyrimidin-5-yl)acetamide] and `O=C(O)CCc1cc(C2CC2)cn2cc(CNc3cc(NC(=O)Cc4ncn5ccc(Cl)cc45)ncn3)nc12` [Example 39, 3-(2-(((6-(2-(7-chloroimidazo[1,5-a]pyridin-1-yl)acetamido)pyrimidin-4-yl)amino)methyl)-6-cyclopropylimidazo[1,2-a]pyridin-8-yl)propanoic acid] cannot be ordered by EC50: 5 to 50 nM for the first, at most 5 nM for the second.

First: N#C/N=C(\NCc1cccc(Cl)c1)Nc1cc(NCc2cn3cc(C4CC4)ccc3n2)ccn1 [Example 128, (E)-1-(3-chlorobenzyl)-2-cyano-3-(4-(((6-cyclopropylimidazo[1,2-a]pyridin-2-yl)methyl)amino)pyridin-2-yl)guanidine]
Second: O=C(/C=C/c1cccc(Cl)c1)Nc1cc(NCc2cn3cc(C4CC4)ccc3n2)ccn1 [Example 114, (E)-3-(3-chlorophenyl)-N-(4-(((6-cyclopropylimidazo[1,2-a]pyridin-2-yl)methyl)amino)pyridin-2-yl)acrylamide]
The EC50 of the first is higher: 500 to 9000 nM for the first, 5 to 50 nM for the second.

Compared with `O=C(Cc1cnc2[nH]cc(Cl)c2c1)Nc1cc(NCc2cn3cc(C4CC4)ccc3n2)ncn1` [Example 129, 2-(3-chloro-1H-pyrrolo[2,3-b]pyridin-5-yl)-N-(6-(((6-cyclopropylimidazo[1,2-a]pyridin-2-yl)methyl)amino)pyrimidin-4-yl)acetamide], `O=C(Cc1cnc2[nH]cc(Cl)c2c1)Nc1cc(NCc2cn3cc(C4CC4)ccc3n2)ccn1` [Example 130, 2-(3-chloro-1H-pyrrolo[2,3-b]pyridin-5-yl)-N-(4-(((6-cyclopropylimidazo[1,2-a]pyridin-2-yl)methyl)amino)pyridin-2-yl)acetamide] is lower in EC50: 50 to 500 nM for the first, at most 5 nM for the second.

First: CCOC(=O)NC(=N)c1cc(C)c(CNc2cc(OCc3cn4cc(C5CC5)ccc4n3)nc(C(=O)O)n2)c(C)c1 [Example 88, 4-((6-cyclopropylimidazo[1,2-a]pyridin-2-yl)methoxy)-6-(4-(N-(ethoxycarbonyl)carbamimidoyl)-2,6-dimethylbenzylamino)pyrimidine-2-carboxylic acid]
Second: CCOC(=O)c1nc(NCc2c(C)cc(C(=N)NO)cc2C)cc(OCc2cn3cc(C4CC4)ccc3n2)n1 [Example 81, ethyl 4-((6-cyclopropylimidazo[1,2-a]pyridin-2-yl)methoxy)-6-((4-(N-hydroxycarbamimidoyl)-2,6-dimethylbenzyl)amino)pyrimidine-2-carboxylate]
The EC50 of the first is lower: at most 5 nM for the first, 50 to 500 nM for the second. The first is the more potent here.

First: COC(C(=O)Nc1cc(NCc2cn3cc(C4CC4)ccc3n2)ncn1)c1ncn2ccc(Cl)cc12 (stereo not drawn) [Example 6, 2-(7-chloroimidazo[1,5-a]pyridin-1-yl)-N-(6-(((6-cyclopropylimidazo[1,2-a]pyridin-2-yl)methyl)amino)pyrimidin-4-yl)-2-methoxyacetamide]
Second: CC(C(=O)Nc1cc(NCc2cn3cc(C4CC4)ccc3n2)ncn1)c1ncn2ccc(Cl)cc12 (stereo not drawn) [Example 4, 2-(7-chloroimidazo[1,5-a]pyridin-1-yl)-N-(6-(((6-cyclopropylimidazo[1,2-a]pyridin-2-yl)methyl)amino)pyrimidin-4-yl)propanamide]
The EC50 of the first is higher: 50 to 500 nM for the first, 5 to 50 nM for the second.

First: COc1ccc(-n2cnnn2)c(CNc2cc(C(F)(F)c3cn4cc(C5CC5)ccc4n3)ncn2)c1F [Example 62, 6-((6-cyclopropylimidazo[1,2-a]pyridin-2-yl)difluoromethyl)-N-(2-fluoro-3-methoxy-6-(1H-tetrazol-1-yl)benzyl)pyrimidin-4-amine]
Second: O=C(Cc1ncn2ccc(Cl)cc12)Nc1cc(C(F)(F)c2cn3cc(C4CC4)ccc3n2)ncn1 [Example 60, 2-(7-chloroimidazo[1,5-a]pyridin-1-yl)-N-(6-((6-cyclopropylimidazo[1,2-a]pyridin-2-yl)difluoromethyl)pyrimidin-4-yl)acetamide formic acid salt]
The EC50 of the first is higher: 500 to 9000 nM for the first, 50 to 500 nM for the second.

First: CCCCCCOC(=O)NC(=N)c1cc(C)c(CNc2cc(OCc3cn4cc(C5CC5)ccc4n3)ncn2)c(C)c1 [Example 76, hexyl ((4-(((6-((6-cyclopropylimidazo[1,2-a]pyridin-2-yl)methoxy)pyrimidin-4-yl)amino)methyl)-3,5-dimethylphenyl)(imino)methyl)carbamate]
Second: CCOC(=O)Cc1cc(C2CC2)cn2cc(COc3cc(NCc4c(C)cc(C(=N)N)cc4C)ncn3)nc12 [Example 94, ethyl 2-(2-((6-(4-carbamimidoyl-2,6-dimethylbenzylamino)pyrimidin-4-yloxy)methyl)-6-cyclopropylimidazo[1,2-a]pyridin-8-yl)acetate]
The EC50 of the first is higher: 50 to 500 nM for the first, at most 5 nM for the second. The second is the more potent here.

`O=C(Cc1ncn2ccc(Cl)cc12)Nc1cc(NCc2cn3c(F)c(C4CC4)ccc3n2)ncn1` [Example 46, 2-(7-chloroimidazo[1,5-a]pyridin-1-yl)-N-(6-(((6-cyclopropyl-5-fluoro-imidazo[1,2-a]pyridin-2-yl)methyl)amino)pyrimidin-4-yl)acetamide] and `N#Cc1cc(C2CC2)cn2cc(CNc3cc(NC(=O)Cc4ncn5ccc(Cl)cc45)ncn3)nc12` [Example 13, 2-(7-chloroimidazo[1,5-a]pyridin-1-yl)-N-(6-(((8-cyano-6-cyclopropylimidazo[1,2-a]pyridin-2-yl)methyl)amino)pyrimidin-4-yl)acetamide] cannot be ordered by EC50: at most 5 nM for the first, at most 5 nM for the second.

`CCOC(=O)CCc1cc(C2CC2)cn2cc(CNc3cc(NC(=O)Cc4ncn5ccc(Cl)cc45)ncn3)nc12` [Example 38, ethyl 3-(2-(((6-(2-(7-chloroimidazo[1,5-a]pyridin-1-yl)acetamido)pyrimidin-4-yl)amino)methyl)-6-cyclopropylimidazo[1,2-a]pyridin-8-yl)propanoate] and `N#Cc1cc(C2CC2)cn2cc(COc3cc(NC(=O)Cc4ncn5ccc(Cl)cc45)ncn3)nc12` [Example 22, 2-(7-chloroimidazo[1,5-a]pyridin-1-yl)-N-(6-((8-cyano-6-cyclopropylimidazo[1,2-a]pyridin-2-yl)methoxy)pyrimidin-4-yl)acetamide] cannot be ordered by EC50: at most 5 nM for the first, 5 to 50 nM for the second.

First: O=C(Cn1ccc2ccc(Cl)cc21)Nc1cc(NCc2cn3cc(C4CC4)ccc3n2)ccn1 [Example 115, 2-(6-chloro-1H-indol-1-yl)-N-(4-(((6-cyclopropylimidazo[1,2-a]pyridin-2-yl)methyl)amino)pyridin-2-yl)acetamide]
Second: O=C(COc1cc(Cl)ccc1-n1cnnn1)Nc1cc(NCc2cn3cc(C4CC4)ccc3n2)ccn1 [Example 116, 2-(5-chloro-2-(1H-tetrazol-1-yl)phenoxy)-N-(4-(((6-cyclopropylimidazo[1,2-a]pyridin-2-yl)methyl)amino)pyridin-2-yl)acetamide]
The EC50 of the first is higher: 500 to 9000 nM for the first, 5 to 50 nM for the second. The second is the more potent here.

`O=C(Cc1ncn2ccc(Cl)cc12)Nc1cc(C(=O)c2cn3cc(C4CC4)ccc3n2)ncn1` [Example 58, 2-(7-chloroimidazo[1,5-a]pyridin-1-yl)-N-(6-(6-cyclopropylimidazo[1,2-a]pyridine-2-carbonyl)pyrimidin-4-yl)acetamide] and `NC(=O)c1ccc(Cl)cc1CC(=O)Nc1cc(NCc2cn3cc(C4CC4)ccc3n2)ncn1` [Example 11, 4-chloro-2-(2-((6-(((6-cyclopropylimidazo[1,2-a]pyridin-2-yl)methyl)amino)pyrimidin-4-yl)amino)-2-oxoethyl)benzamide] fall in the same range of EC50: 500 to 9000 nM for the first, 500 to 9000 nM for the second.

First: O=C(CCc1cccc(Cl)c1)Nc1cc(NCc2cn3cc(C4CC4)ccc3n2)ncn1 [Example 8, 3-(3-chlorophenyl)-N-(6-(((6-cyclopropylimidazo[1,2-a]pyridin-2-yl)methyl)amino)pyrimidin-4-yl)propanamide]
Second: O=C(Cn1cc(Cl)ccc1=O)Nc1cc(NCc2cn3cc(C4CC4)ccc3n2)ncn1 [Example 119, 2-(5-chloro-2-oxopyridin-1 (2H)-yl)-N-(6-(((6-cyclopropylimidazo[1,2-a]pyridin-2-yl)methyl)amino)pyrimidin-4-yl)acetamide]
The EC50 of the first is lower: 500 to 9000 nM for the first, over 9000 nM for the second. The first is the more potent here.

Going from `COc1ccc(=O)n(CC(=O)Nc2cc(NCc3cn4cc(C5CC5)ccc4n3)ncn2)c1` [Example 121, N-(6-(((6-cyclopropylimidazo[1,2-a]pyridin-2-yl)methyl)amino)pyrimidin-4-yl)-2-(5-methoxy-2-oxopyridin-1 (2H)-yl)acetamide] to `Cc1cc(N)nc(C)c1CNc1cc(NCc2cn3cc(C4CC4)ccc3n2)ncn1` [Example 111, N^4-((6-amino-2,4-dimethylpyridin-3-yl)methyl)-N^6-((6-cyclopropylimidazo[1,2-a]pyridin-2-yl)methyl)pyrimidine-4,6-diamine], the EC50 falls from over 9000 nM to at most 5 nM. The second is the more potent here.

`CCOC(=O)C(C)(C)Cc1nc(NCc2c(C)cc(C(=N)N)cc2C)cc(OCc2cn3cc(C4CC4)ccc3n2)n1` [Example 93, ethyl 3-(4-((4-carbamimidoyl-2,6-dimethylbenzyl)amino)-6-((6-cyclopropylimidazo[1,2-a]pyridin-2-yl)methoxy)pyrimidin-2-yl)-2,2-dimethylpropanoate] and `Cc1cc(C(=N)N)cc(C)c1CNc1cc(OCc2cn3cc(Cl)ccc3n2)ncn1` [Example 69, 4-(((6-((6-chloroimidazo[1,2-a]pyridin-2-yl)methoxy)pyrimidin-4-yl)amino)methyl)-3,5-dimethylbenzimidamide formic acid salt] cannot be ordered by EC50: at most 5 nM for the first, at most 5 nM for the second.
